Species: Rattus norvegicus
Assay: DrugMatrix - Regimen: Daily Repeat
Format: toxicity, organism-based, Sprague-Dawley
Parameters: regimen Daily Repeat, gender Male, age 6-8 weeks
Settings: in vivo, sc, route subcutaneous, […]; for ABSOLUTE BASOPHIL / ABSOLUTE EOSINOPHIL / ABSOLUTE LYMPHOCYTE / ABSOLUTE MONOCYTE / ABSOLUTE SEGMENTED NEUTROPHIL / BASOPHIL / EOSINOPHIL / ERYTHROCYTE COUNT / HEMATOCRIT / HEMOGLOBIN / LEUKOCYTE COUNT / LYMPHOCYTE / MEAN CORPUSCULAR HEMOGLOBIN / MEAN CORPUSCULAR HEMOGLOBIN CONCENTRATION / MEAN CORPUSCULAR VOLUME / MONOCYTE / NEUTROPHIL / NUCLEATED RED BLOOD CELLS / PLATELET COUNT: tissue Blood; for ALANINE AMINOTRANSFERASE / ALKALINE PHOSPHATASE / ASPARTATE AMINOTRANSFERASE / BLOOD UREA NITROGEN / CARBON DIOXIDE / CHLORIDE / CHOLESTEROL / CREATINE PHOSPHOKINASE / CREATININE / GLUCOSE / LACTATE DEHYDROGENASE / LIPASE / PHOSPHORUS / POTASSIUM / SODIUM / TOTAL BILIRUBIN / TOTAL PROTEIN / URIC ACID: tissue Plasma
[1] = 17 mg/kg, 120 h, dose level Low, time 5 day
[2] = 800 mg/kg, 72 h, dose level High, time 3 day
[3] = 800 mg/kg, 120 h, dose level High, time 5 day

SMILES: CC(C)Cn1cnc2c(N)nc3ccccc3c21 [IMIQUIMOD]
- ABSOLUTE BASOPHIL [1]: 0 CELLS/uL
- ABSOLUTE EOSINOPHIL [1]: 29.67 CELLS/uL
- ABSOLUTE LYMPHOCYTE [1]: 8944.33 CELLS/uL
- ABSOLUTE MONOCYTE [1]: 43 CELLS/uL
- ABSOLUTE SEGMENTED NEUTROPHIL [1]: 1349.67 CELLS/uL
- BASOPHIL [1]: 0%
- EOSINOPHIL [1]: 0.33%
- ERYTHROCYTE COUNT [1]: 5.45 x10E6/uL
- HEMATOCRIT [1]: 33.33%
- HEMOGLOBIN [1]: 12.27 G/DL
- LEUKOCYTE COUNT [1]: 10.37 x10E3/uL
- LYMPHOCYTE [1]: 85.67%
- MEAN CORPUSCULAR HEMOGLOBIN [1]: 22.53 pg
- MEAN CORPUSCULAR HEMOGLOBIN CONCENTRATION [1]: 36.77 G/DL
- MEAN CORPUSCULAR VOLUME [1]: 61.17 fL
- MONOCYTE [1]: 0.33%
- NEUTROPHIL [1]: 13.67%
- NUCLEATED RED BLOOD CELLS [1]: 0.67 /100WBC
- PLATELET COUNT [1]: 1497.33 x10E3/uL
- ALANINE AMINOTRANSFERASE [1]: 53 u/L
- ALKALINE PHOSPHATASE [1]: 401.33 u/L
- ASPARTATE AMINOTRANSFERASE [1]: 93.33 u/L
- BLOOD UREA NITROGEN [1]: 17 mg/dL
- CARBON DIOXIDE [1]: 23.67 mmol/L
- CHLORIDE [1]: 108.67 MEQ/L
- CHOLESTEROL [1]: 52.33 mg/dL
- CREATINE PHOSPHOKINASE [1]: 410.67 u/L
- CREATININE [1]: 0.19 mg/dL
- GLUCOSE [1]: 174.67 mg/dL
- LACTATE DEHYDROGENASE [1]: 110 u/L
- LIPASE [1]: 7 u/L
- PHOSPHORUS [1]: 13.1 mg/dL
- POTASSIUM [1]: 6.07 MEQ/L
- SODIUM [1]: 146.2 MEQ/L
- TOTAL BILIRUBIN [1]: 0.2 mg/dL
- TOTAL PROTEIN [1]: 5.23 G/DL
- URIC ACID [1]: 1.73 mg/dL
- ABSOLUTE BASOPHIL [2]: 0 CELLS/uL
- ABSOLUTE EOSINOPHIL [2]: 67.67 CELLS/uL
- ABSOLUTE LYMPHOCYTE [2]: 7240 CELLS/uL
- ABSOLUTE MONOCYTE [2]: 88 CELLS/uL
- ABSOLUTE SEGMENTED NEUTROPHIL [2]: 637.67 CELLS/uL
- BASOPHIL [2]: 0%
- EOSINOPHIL [2]: 1%
- ERYTHROCYTE COUNT [2]: 5.31 x10E6/uL
- HEMATOCRIT [2]: 33.3%
- HEMOGLOBIN [2]: 12.5 G/DL
- LEUKOCYTE COUNT [2]: 8.03 x10E3/uL
- LYMPHOCYTE [2]: 90%
- MEAN CORPUSCULAR HEMOGLOBIN [2]: 23.57 pg
- MEAN CORPUSCULAR HEMOGLOBIN CONCENTRATION [2]: 37.57 G/DL
- MEAN CORPUSCULAR VOLUME [2]: 62.73 fL
- MONOCYTE [2]: 1%
- NEUTROPHIL [2]: 8%
- NUCLEATED RED BLOOD CELLS [2]: 0 /100WBC
- PLATELET COUNT [2]: 828 x10E3/uL
- ALANINE AMINOTRANSFERASE [2]: 47 u/L
- ALKALINE PHOSPHATASE [2]: 345.33 u/L
- ASPARTATE AMINOTRANSFERASE [2]: 91.67 u/L
- BLOOD UREA NITROGEN [2]: 15.67 mg/dL
- CARBON DIOXIDE [2]: 28.67 mmol/L
- CHLORIDE [2]: 107 MEQ/L
- CHOLESTEROL [2]: 65 mg/dL
- CREATINE PHOSPHOKINASE [2]: 419.33 u/L
- CREATININE [2]: 0.27 mg/dL
- GLUCOSE [2]: 147 mg/dL
- LACTATE DEHYDROGENASE [2]: 130.67 u/L
- LIPASE [2]: 7.5 u/L
- PHOSPHORUS [2]: 10.23 mg/dL
- POTASSIUM [2]: 5.87 MEQ/L
- SODIUM [2]: 147.45 MEQ/L
- TOTAL BILIRUBIN [2]: 0.13 mg/dL
- TOTAL PROTEIN [2]: 5.17 G/DL
- URIC ACID [2]: 0.73 mg/dL
- ABSOLUTE BASOPHIL [3]: 0 CELLS/uL
- ABSOLUTE EOSINOPHIL [3]: 301.33 CELLS/uL
- ABSOLUTE LYMPHOCYTE [3]: 14418.33 CELLS/uL
- ABSOLUTE MONOCYTE [3]: 118 CELLS/uL
- ABSOLUTE SEGMENTED NEUTROPHIL [3]: 5662.33 CELLS/uL
- BASOPHIL [3]: 0%
- EOSINOPHIL [3]: 1.33%
- ERYTHROCYTE COUNT [3]: 4.85 x10E6/uL
- HEMATOCRIT [3]: 30.53%
- HEMOGLOBIN [3]: 12.07 G/DL
- LEUKOCYTE COUNT [3]: 20.5 x10E3/uL
- LYMPHOCYTE [3]: 70.33%
- MEAN CORPUSCULAR HEMOGLOBIN [3]: 24.9 pg
- MEAN CORPUSCULAR HEMOGLOBIN CONCENTRATION [3]: 39.5 G/DL
- MEAN CORPUSCULAR VOLUME [3]: 62.93 fL
- MONOCYTE [3]: 0.67%
- NEUTROPHIL [3]: 27.67%
- NUCLEATED RED BLOOD CELLS [3]: 0.33 /100WBC
- PLATELET COUNT [3]: 1467 x10E3/uL
- ALANINE AMINOTRANSFERASE [3]: 44 u/L
- ALKALINE PHOSPHATASE [3]: 267.67 u/L
- ASPARTATE AMINOTRANSFERASE [3]: 86 u/L
- BLOOD UREA NITROGEN [3]: 18 mg/dL
- CARBON DIOXIDE [3]: 25 mmol/L
- CHLORIDE [3]: 103.67 MEQ/L
- CHOLESTEROL [3]: 58 mg/dL
- CREATINE PHOSPHOKINASE [3]: 257.33 u/L
- CREATININE [3]: 0.29 mg/dL
- GLUCOSE [3]: 184.67 mg/dL
- LACTATE DEHYDROGENASE [3]: 248 u/L
- LIPASE [3]: 7.67 u/L
- PHOSPHORUS [3]: 11.8 mg/dL
- POTASSIUM [3]: 5.8 MEQ/L
- SODIUM [3]: 142.87 MEQ/L
- TOTAL BILIRUBIN [3]: 0.17 mg/dL
- TOTAL PROTEIN [3]: 5.3 G/DL
- URIC ACID [3]: 1.6 mg/dL
